Where two headings read alike, the source gives them in different places.
What was measured:
[1] = cytotoxicity in Drosophila DL1 cells; format: cell-based; conditions: Drosophila, DL1 cells (embryonic macrophage-derived), DL1 cells
Procedure: (§1) We screened the DDPs on the Drosophila assay system for cytotoxicity, inhibitory activity of innate immune signalling and insecticidal activity. The cytotoxicity of the DDPs was evaluated using two cell lines, embryonic macrophage-derived DL1 cells[58]–[60] and larval blood cell-derived l(2)mbn cells, and their IC50 values are listed in Supplementary Table 23.

DL1 cells = experiment: cytotoxicity in Drosophila DL1 cells; format: cell-based; conditions: DL1 cells; for IC50: Drosophila melanogaster, cytotoxicity
Procedure: as §1

[2] = cytotoxicity in Drosophila l(2)mbn cells; format: cell-based; conditions: Drosophila, l(2)mbn cells (larval blood cell-derived)
Procedure: as §1

l(2)mbn cells = experiment: cytotoxicity in Drosophila l(2)mbn cells; format: cell-based; conditions: for Luminescence Raw1: replicate 1; for Luminescence Raw2: replicate 2; for IC50: Drosophila melanogaster, cytotoxicity
Procedure: as §1

[3] = test system: human immunodeficiency virus-1 (HIV-1); experiment: anti-HIV MAGI assay; format: cell-based; conditions: Human immunodeficiency virus 1, MAGI, anti-HIV; average of numeric determinations; read-out: Avg. EC50
From the text: We examined the inhibitory activities of DDPs against various species of bacteria (both gram-negative and gram-positive bacteria), fungi and viruses. […] In contrast, preliminary screening of the DDPs for anti-viral agents with hepatitis B virus (HBV), measles virus (MV), Epstein-Barr virus (EBV), herpes simplex virus (HSV) and human immunodeficiency virus-1 (HIV-1) indicated their selective inhibition of HIV.

A549 = experiment: cells; set-up: species or system JFCR39 human cancer cell lines; JFCR39 panel growth inhibition, sulforhodamine B total protein after 48 h; conditions: Homo sapiens, A549, 48 h
Procedure: (§2) Supplementary Note 24. Antiproliferative effects across the panel of JFCR39 cancer cell lines A panel of 39 human cancer cell lines, termed JFCR39, were previously described13-16. Cells were grown in RPMI-1640 (FUJIFILM Wako Pure Chemical Corporation, Tokyo, Japan) supplemented with 1 µg mL-1 kanamycin and 5% (v/v) fetal bovine serum (Nichirei Biosciences Inc, Tokyo, Japan) and incubated at 37°C in a humidified atmosphere supplemented with 5% CO2. Drug efficacy was assessed as changes in total cellular protein after 48 hours of drug treatment using a sulforhodamine B assay. Assays were done in duplicate and the GI50 was calculated as described previously13,16. The antitumor profile across the JFCR39 panel, or fingerprints were then compared to reference database containing ~2000 compounds by COMPARE algorithm16,17. Initially, we evaluated new DDP analogues for their antiproliferative activities across the panel of 39 human cancer cell lines, JFCR39[50],[51].

ACHN = experiment: cells; set-up: species or system JFCR39 human cancer cell lines; JFCR39 panel growth inhibition, sulforhodamine B total protein after 48 h; conditions: Homo sapiens, ACHN, 48 h
Procedure: as §2

BSY-1 = experiment: cells; set-up: species or system JFCR39 human cancer cell lines; JFCR39 panel growth inhibition, sulforhodamine B total protein after 48 h; conditions: BSY-1, 48 h
Procedure: as §2

KM-12 = experiment: cells; set-up: species or system JFCR39 human cancer cell lines; JFCR39 panel growth inhibition, sulforhodamine B total protein after 48 h; conditions: Homo sapiens, KM12, 48 h
Procedure: as §2

LOX-IMVI = experiment: cells; set-up: species or system JFCR39 human cancer cell lines; JFCR39 panel growth inhibition, sulforhodamine B total protein after 48 h; conditions: Homo sapiens, LOX IMVI, 48 h
Procedure: as §2

MKN-B = experiment: cells; set-up: species or system JFCR39 human cancer cell lines; JFCR39 panel growth inhibition, sulforhodamine B total protein after 48 h; conditions: 48 h
Procedure: as §2

NCI-H226 = experiment: cells; set-up: species or system JFCR39 human cancer cell lines; JFCR39 panel growth inhibition, sulforhodamine B total protein after 48 h; conditions: Homo sapiens, NCI-H226, 48 h
Procedure: as §2

NCI-H460 = experiment: cells; set-up: species or system JFCR39 human cancer cell lines; JFCR39 panel growth inhibition, sulforhodamine B total protein after 48 h; conditions: Homo sapiens, NCI-H460, 48 h
Procedure: as §2

[4] = replicate 1, relative to DMSO 1%, read-out: % viability, viability 1
[5] = replicate 2, relative to DMSO 1%, read-out: % viability, viability 2
[6] = average of two replicates, read-out: IC50 Average
[7] = replicate 1, read-out: IC50 (1)
[8] = replicate 2, read-out: IC50 (2)

Compound: C=C1CC[C@@H]2[C@](C)(CC[C@H]3O[C@H](C=C(C)C)C[C@@]23C)[C@@H]1Cc1c(OC)oc(CO)c(C)c1=O [Compound 20]
- viability at 0.04 µM [1, 4]: 191%
- viability at 0.04 µM [1, 5]: 209%
- viability at 0.2 µM [1, 4]: 171%
- viability at 0.2 µM [1, 5]: 166%
- viability at 1 µM [1, 4]: 20.6%
- viability at 1 µM [1, 5]: 19.9%
- viability at 4 µM [1, 4]: 20.4%
- viability at 4 µM [1, 5]: 21.2%
- viability at 10 µM [1, 4]: 20.5%
- viability at 10 µM [1, 5]: 19.2%
- viability at 20 µM [1, 4]: 20.5%
- viability at 20 µM [1, 5]: 24.6%
- Luminescence Raw1 (DL1 cells; 0.04 µM, replicate 1): 2619350
- Luminescence Raw2 (DL1 cells; 0.04 µM, replicate 2): 2864984
- Luminescence Raw1 (DL1 cells; 0.2 µM, replicate 1): 2345231
- Luminescence Raw2 (DL1 cells; 0.2 µM, replicate 2): 2278506
- Luminescence Raw1 (DL1 cells; 1 µM, replicate 1): 282109
- Luminescence Raw2 (DL1 cells; 1 µM, replicate 2): 273095
- Luminescence Raw1 (DL1 cells; 4 µM, replicate 1): 279585
- Luminescence Raw2 (DL1 cells; 4 µM, replicate 2): 290402
- Luminescence Raw1 (DL1 cells; 10 µM, replicate 1): 280667
- Luminescence Raw2 (DL1 cells; 10 µM, replicate 2): 263720
- Luminescence Raw1 (DL1 cells; 20 µM, replicate 1): 281027
- Luminescence Raw2 (DL1 cells; 20 µM, replicate 2): 336916
- IC50 (DL1 cells; [6]): 269 nM
- IC50 (DL1 cells; average±SEM, read-out: IC50): 270 ± 30 nM
- IC50 (DL1 cells; [7]): 299 nM
- IC50 (DL1 cells; [8]): 238 nM
- viability at 0.04 µM [2, 4]: 95.7%
- viability at 0.04 µM [2, 5]: 102%
- viability at 0.2 µM [2, 4]: 106%
- viability at 0.2 µM [2, 5]: 112%
- viability at 1 µM [2, 4]: 71.1%
- viability at 1 µM [2, 5]: 80.9%
- viability at 4 µM [2, 4]: 1.55%
- viability at 4 µM [2, 5]: 2.17%
- viability at 10 µM [2, 4]: 1.88%
- viability at 10 µM [2, 5]: 1.76%
- viability at 20 µM [2, 4]: 1.4%
- viability at 20 µM [2, 5]: 2.05%
- Luminescence Raw1 (l(2)mbn cells; 0.04 µM): 6010744
- Luminescence Raw2 (l(2)mbn cells; 0.04 µM): 6416731
- Luminescence Raw1 (l(2)mbn cells; 0.2 µM): 6637959
- Luminescence Raw2 (l(2)mbn cells; 0.2 µM): 7047592
- Luminescence Raw1 (l(2)mbn cells; 1 µM): 4464964
- Luminescence Raw2 (l(2)mbn cells; 1 µM): 5080853
- Luminescence Raw1 (l(2)mbn cells; 4 µM): 97218
- Luminescence Raw2 (l(2)mbn cells; 4 µM): 136159
- Luminescence Raw1 (l(2)mbn cells; 10 µM): 118130
- Luminescence Raw2 (l(2)mbn cells; 10 µM): 110559
- Luminescence Raw1 (l(2)mbn cells; 20 µM): 87844
- Luminescence Raw2 (l(2)mbn cells; 20 µM): 128947
- IC50 (l(2)mbn cells; [6]): 1450 nM
- IC50 (l(2)mbn cells; average±SEM, read-out: IC50): 1450 ± 130 nM
- IC50 (l(2)mbn cells; [7]): 1320 nM
- IC50 (l(2)mbn cells; [8]): 1580 nM
- EC50 [3]: 4070 nM
- GI50 (A549): 11400 nM
- GI50 (ACHN): 11100 nM
- GI50 (BSY-1): 12200 nM
- GI50 (KM-12): 14800 nM
- GI50 (LOX-IMVI): 10100 nM
- GI50 (MKN-B): 1060 nM
- GI50 (NCI-H226): 13600 nM
- GI50 (NCI-H460): 81.1 nM
